Test results taken from ChEMBL document CHEMBL1201862, “PubChem BioAssay data set” (2004).
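Grown in 96-well plates, cells were treated for 48 hours with each compound at five concentrations. Insufficient inhibition: endpoint recorded as highest concentration tested. GI50: concentration for 50% inhibition of growth.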 Calls of active or inactive are those of the source. Cut-off read from the data, not from the text of the source: active = GI50 up to about 1.1 µM and inactive = higher.

Columns and labels:
Assay in all cases: NCI tumour cell line growth inhibition, 48 h
OVCAR-3 = test system: OVCAR-3
BT-549 = test system: BT-549
ACHN = test system: ACHN
CCRF-CEM = test system: CCRF-CEM
LOX IMVI = test system: LOX IMVI
K562 = test system: K562
HCT-116 = test system: HCT-116
T47D = test system: T47D
U-251 = test system: U-251
MCF7 = test system: MCF7
SW-620 = test system: SW-620
SF-268 = test system: SF-268
SK-MEL-28 = test system: SK-MEL-28
PC-3 = test system: PC-3
SK-MEL-2 = test system: SK-MEL-2
SR = test system: SR
Hs-578T = test system: Hs-578T
NCI-H226 = test system: NCI-H226
EKVX = test system: EKVX
OVCAR-8 = test system: OVCAR-8

Measured: GI50

CC1(C)S[C@@H]2[C@H](NC(=O)C3(N)CCCCC3)C(=O)N2[C@H]1C(=O)O [CYCLACILLIN]
inactive: OVCAR-3 > 100 µM | BT-549 > 100 µM | ACHN > 100 µM | CCRF-CEM > 100 µM | LOX IMVI > 100 µM | K562 > 100 µM | HCT-116 > 100 µM | T47D > 100 µM | U-251 > 100 µM | MCF7 > 100 µM | SW-620 > 100 µM | SF-268 > 100 µM | SK-MEL-28 > 100 µM | PC-3 > 100 µM | SK-MEL-2 > 100 µM | SR > 100 µM | Hs-578T > 100 µM | NCI-H226 > 100 µM | EKVX > 100 µM | OVCAR-8 > 100 µM

C=C(COC(=O)C(C)C)[C@H]1Oc2ccc(C(C)=O)cc2[C@@H]1OC(=O)C(C)C
inactive: OVCAR-3 > 100 µM | BT-549 > 100 µM | ACHN > 100 µM | CCRF-CEM > 100 µM | LOX IMVI > 100 µM | K562 > 100 µM | HCT-116 > 100 µM | T47D > 100 µM | U-251 > 100 µM | MCF7 > 100 µM | SW-620 > 100 µM | SF-268 > 100 µM | SK-MEL-28 > 100 µM | PC-3 > 100 µM | SK-MEL-2 > 100 µM | SR > 100 µM | Hs-578T 42.6 µM | NCI-H226 > 100 µM | EKVX > 100 µM | OVCAR-8 > 100 µM

O=P1(Cc2ccccc2)N(Cc2ccccc2)[C@@H]2CCCC[C@H]2N1Cc1ccccc1
inactive: OVCAR-3 7.23 µM | BT-549 17.7 µM | ACHN 12.4 µM | CCRF-CEM 4.76 µM | LOX IMVI 12.2 µM | K562 5 µM | HCT-116 6.73 µM | T47D 5.48 µM | U-251 11.1 µM | MCF7 6.89 µM | SW-620 10.1 µM | SF-268 11.1 µM | SK-MEL-28 16.8 µM | PC-3 4.18 µM | SK-MEL-2 11.2 µM | SR 2.69 µM | Hs-578T 10.7 µM | NCI-H226 2.2 µM | EKVX 9.62 µM | OVCAR-8 10 µM

C[C@@H]1[C@@H](C)C(c2ccccc2)O[Si]1(C(C)(C)C)C(C)(C)C (stereo not given in full)
inactive: OVCAR-3 16.5 µM | BT-549 24.4 µM | ACHN 17.7 µM | CCRF-CEM 18.9 µM | LOX IMVI 16.9 µM | K562 22.3 µM | HCT-116 15.5 µM | T47D 19.1 µM | U-251 17 µM | MCF7 18.1 µM | SW-620 18.8 µM | SF-268 25.2 µM | SK-MEL-28 24.9 µM | PC-3 17.1 µM | SK-MEL-2 15.8 µM | SR 11.8 µM | Hs-578T 20.9 µM | NCI-H226 18.1 µM | EKVX 17.1 µM | OVCAR-8 17.8 µM

O=P(O)(O)CN1CCNCCN(CP(=O)(O)O)CCN(CP(=O)(O)O)CCNCC1
inactive: OVCAR-3 > 100 µM | BT-549 > 100 µM | ACHN > 100 µM | CCRF-CEM > 100 µM | LOX IMVI 91800 µM | K562 > 100 µM | HCT-116 54600 µM | T47D 48300 µM | U-251 > 100 µM | MCF7 > 100 µM | SW-620 > 100 µM | SF-268 > 100000 µM | SK-MEL-28 > 100 µM | PC-3 > 100 µM | SK-MEL-2 99300 µM | SR > 100 µM | Hs-578T > 100 µM | NCI-H226 9.48 µM | EKVX > 100 µM | OVCAR-8 83400 µM
